Results on 15 molecules are retold here after patent publication US11793827B2, “Adenosine derivative and pharmaceutical composition comprising the same” (Brii Biosciences, Inc., priority 2021, dated 2023).

Series [1] in a line: Plasma stability (human plasma). The following applies: for Formation of EFdA at 30 min: human plasma; for half-life at 2 µM: human, pH 7.4. The protocol: The pooled frozen plasma was thawed in a water bath at 37° C. prior to experiment. Plasma was centrifuged at 4000 rpm for 5 min and the clots were removed if any. The pH will be adjusted to 7.4±0.1 if required.
Preparation of test compounds and positive control (propantheline bromide): 1 mM intermediate solution was prepared by diluting 10 μL of the stock solution with 90 μL MeOH; 1 mM intermediate of positive control Propantheline was prepared by diluting 10 μL of the stock solution with 90 μL ultrapure water. 100 μM dosing solution was prepared by diluting 20 μL of the intermediate solution (1 mM) with 180 μL MeOH. 98 μL of blank plasma was spiked with 2 μL of dosing solution (100 μM) to achieve 2 μM of the final concentration in duplicate and samples were incubated at 37° C. in a water bath. […] Centrifuged sample plates at 4,000 rpm for 10 min. An aliquot of supernatant (100 μL) was transferred from each well to another plates.

Series [2] can be described thus: Liver S9 stability (human liver S9). Format: in vitro ADME. The conditions noted are these: for half-life at 1 µM: human liver S9, 37° C.; for Formation of EFdA at 30 min: human liver S9, 30 min. The protocol:
Add 600 μL/well stop solution (cold in 4° C., including 100 ng/mL Tolbutamide/100 ng/mL Labetalol) to terminate the TO plate, then put it on ice. Dispense 840 μL/well S9 solution to 96-well plate as reservoir according to plate map. Then add 100 μL/well to every plate by Apricot. Incubate S9 solution and compound at 37° C. for about 10 min except NCF60 and TO. After adding S9 solution and 98μ LPB buffer to NCF60, incubate at 37° C. without pre-warming, start timer 1. After 60 min, add 600 μL/well stop solution to terminate the reaction. After pre-warming, dispense 760 μL/well cofactor solution to 96-well plate as reservoir according to plate map. Then add 98 μL/well to every plate by Apricot to start reaction. Incubate at 37° C., start timer 2, Add 600 μL/well stop solution (cold in 4° C., including 100 ng/mL Tolbutamide and Labetalol) to terminate the reaction. Samples are centrifuged at 4000 rpm for 20 min. While centrifuging, load 8× new 96-well plate with 300 μL HPLC water, then transfer 100 μL supernatant, mix with water for LC/MS/MS, transferred to Bioanalytical Services for LC-MS/MS analysis. Use equation of first order kinetics [NT]1/2 and CL: Equation of first order kinetics: [formula] [formula] [formula] [formula]

With `C#C[C@]1(COC(=O)OC23CC4CC(CC(C4)C2)C3)O[C@@H](n2cnc3c(N)nc(F)nc32)C[C@@H]1O` [Compound 4, ((2R, 3S, 5R)-5-(6-amino-2-fluoro-9H-purin-9-yl)-2-ethynyl-3-hydroxy-tetrahydrofuran-2-yl)methyl 1-adamantyl carbonate], the “Formation of EFdA at 30 min” value in series [1] is reported as “Yes”. In addition, the half-life at 2 µM in series [1] (pooled plasma) is > 200 min. Besides, in series [2], the half-life at 1 µM was < 50 min and the “Formation of EFdA at 30 min” value was “Yes”.
With `C#C[C@]1(COC(=O)OC23CC4CC(CC(C4)C2)C3)O[C@@H](n2cnc3c(N)nc(F)nc32)C[C@@H]1OC(=O)OC12CC3CC(CC(C3)C1)C2` [Compound 6, (((2R,3S,5R)-3-((((1-adamantyl)oxy)carbonyl)oxy)-5-(6-amino-2-fluoro-9H-purin-9-yl)-2-ethynyltetrahydrofuran-2-yl)methyl) 1-adamantyl carbonate], in series [1], the “Formation of EFdA at 30 min” value is “No”. Besides, the half-life at 2 µM in series [1] (pooled plasma) was > 200 min. Further, in series [2], the half-life at 1 µM was < 50 min and the “Formation of EFdA at 30 min” value was “Yes”.
Regarding `C#C[C@]1(CO)O[C@@H](n2cnc3c(N)nc(F)nc32)C[C@@H]1OC(=O)OCCC12CC3CC(CC(C3)C1)C2` [Compound 8, ((2R,3S,5R)-5-(6-amino-2-fluoro-9H-purin-9-yl)-2-ethynyl-2-(hydroxymethyl)tetrahydrofuran-3-yl) 2-(1-adamantyl)ethyl carbonate], the “Formation of EFdA at 30 min” value in series [1] is listed as “Yes”. This molecule also had a half-life at 2 µM in series [1] (pooled plasma) of 50 to 200 min. In addition, in series [2], the half-life at 1 µM is < 50 min and the “Formation of EFdA at 30 min” value is listed as “Yes”.
On to `C#C[C@]1(COC(=O)OCCC23CC4CC(CC(C4)C2)C3)O[C@@H](n2cnc3c(N)nc(F)nc32)C[C@@H]1OC(=O)OCCC12CC3CC(CC(C3)C1)C2` [Compound 9, ((2R,3S,5R)-2-((((2-(1-adamantyl)ethoxy)carbonyl)oxy)methyl)-5-(6-amino-2-fluoro-9H-purin-9-yl)-2-ethynyltetrahydrofuran-3-yl) 2-(1-adamantyl)ethyl carbonate], for which the “Formation of EFdA at 30 min” value in series [1] was “No”. For the same molecule, in series [1] (pooled plasma), the half-life at 2 µM is > 200 min. In series [2], the half-life at 1 µM is < 50 min and the “Formation of EFdA at 30 min” value was “Yes”.
Take `C#C[C@]1(COC(=O)CCC23CC4CC(CC(C4)C2)C3)O[C@@H](n2cnc3c(N)nc(F)nc32)C[C@@H]1O` [Compound 14, ((2R, 3S, 5R)-5-(6-amino-2-fluoro-9H-purin-9-yl)-2-ethynyl-3-hydroxy-tetrahydrofuran-2-yl)methyl 3-(1-adamantyl)propanoate]: the “Formation of EFdA at 30 min” value in series [1] is “Yes”. Also, the half-life at 2 µM in series [1] (pooled plasma) was < 50 min. In series [2], the half-life at 1 µM was < 50 min and the “Formation of EFdA at 30 min” value is listed as “Yes”.
Take `C#C[C@]1(COC(=O)CCCC23CC4CC(CC(C4)C2)C3)O[C@@H](n2cnc3c(N)nc(F)nc32)C[C@@H]1O` [Compound 15, ((2R, 3S, 5R)-5-(6-amino-2-fluoro-9H-purin-9-yl)-2-ethynyl-3-hydroxy-tetrahydrofuran-2-yl)methyl 4-(1-adamantyl)butanoate]: the “Formation of EFdA at 30 min” value in series [1] was “Yes”. Also, the half-life at 2 µM in series [1] (pooled plasma) is < 50 min. Moreover, in series [2], the half-life at 1 µM is < 50 min and the “Formation of EFdA at 30 min” value is recorded as “Yes”.
`C#C[C@@]12COC(=O)CCCCCOC(=O)O[C@H]1C[C@H](n1cnc3c(N)nc(F)nc31)O2` [Compound 17, (11aR,13R,14aS)-13-(6-amino-2-fluoro-9H-purin-9-yl)-11a-ethynyloctahydro-11H-furo[3,2-d][1,3,7]trioxacyclotridecine-2,9(4H)-dione]: the “Formation of EFdA at 30 min” value in series [1] is “Yes”. Also, in series [1] (pooled plasma), the half-life at 2 µM was > 200 min. In addition, in series [2], the half-life at 1 µM was < 50 min and the “Formation of EFdA at 30 min” value is recorded as “Yes”.
Turning to `C#C[C@]1(COC(=O)OCCC23CC4CC(CC(C4)C2)C3)O[C@@H](n2cnc3c(N)nc(F)nc32)C[C@@H]1OC(=O)OCC` [Compound 18, ((2R,3S,5R)-2-((((2-(1-adamantyl)ethoxy)carbonyl)oxy)methyl)-5-(6-amino-2-fluoro-9H-purin-9-yl)-2-ethynyltetrahydrofuran-3-yl) ethyl carbonate], in series [1], the “Formation of EFdA at 30 min” value is given as “No”. Further, the half-life at 2 µM in series [1] (plasma) was < 50 min. In addition, in series [2], the half-life at 1 µM is < 50 min and the “Formation of EFdA at 30 min” value is “Yes”.
Regarding `C#C[C@]1(COC(=O)OCCC23CC4CC(CC(C4)C2)C3)O[C@@H](n2cnc3c(N)nc(F)nc32)C[C@@H]1OC(=O)C(C)C` [Compound 19, ((2R,3S,5R)-2-((((2-(1-adamantyl)ethoxy)carbonyl)oxy)methyl)-5-(6-amino-2-fluoro-9H-purin-9-yl)-2-ethynyltetrahydrofuran-3-yl) isobutyrate], the “Formation of EFdA at 30 min” value is on record as “No” in series [1] and “Yes” in series [2]. The half-life at 2 µM in series [1] (pooled plasma) is < 50 min. For the same molecule, the half-life at 1 µM in series [2] is < 50 min.
On to `C#C[C@]1(COC(=O)OCCCC23CC4CC(CC(C4)C2)C3)O[C@@H](n2cnc3c(N)nc(F)nc32)C[C@@H]1OC(=O)C(C)C` [Compound 21, ((2R,3S,5R)-2-((((3-(1-adamantyl)propoxy)carbonyl)oxy)methyl)-5-(6-amino-2-fluoro-9H-purin-9-yl)-2-ethynyltetrahydrofuran-3-yl) isobutyrate], for which the “Formation of EFdA at 30 min” value in series [1] is recorded as “Yes”. Moreover, the half-life at 2 µM in series [1] (pooled plasma) fell in the range of 50 to 200 min. Further, in series [2], the half-life at 1 µM is < 50 min and the “Formation of EFdA at 30 min” value was “Yes”.
Consider `C#C[C@]1(COC(=O)OCCCC23CC4CC(CC(C4)C2)C3)O[C@@H](n2cnc3c(N)nc(F)nc32)C[C@@H]1OC(=O)OCCCC12CC3CC(CC(C3)C1)C2` [Compound 22, ((2R,3S,5R)-3-[3-(1-adamantyl)propoxycarbonyloxy]-5-(6-amino-2-fluoro-9H-purin-9-yl)-2-ethynyl-tetrahydrofuran-2-yl)methyl 3-(1-adamantyl)propyl carbonate], for which the “Formation of EFdA at 30 min” value in series [1] is listed as “No”. In series [1] (pooled plasma), the half-life at 2 µM was > 200 min. Moreover, in series [2], the half-life at 1 µM was in the range of 50 to 200 min and the “Formation of EFdA at 30 min” value is on record as “Yes”.
`C#C[C@]1(COC(=O)OCC23CC4CC(CC(C4)C2)C3)O[C@@H](n2cnc3c(N)nc(F)nc32)C[C@@H]1OC(=O)OCC12CC3CC(CC(C3)C1)C2` [Compound 23, ((2R,3S,5R)-3-(1-adamantylmethoxycarbonyloxy)-5-(6-amino-2-fluoro-9H-purin-9-yl)-2-ethynyl-tetrahydrofuran-2-yl)methyl 1-adamantylmethyl carbonate]: the “Formation of EFdA at 30 min” value in series [1] was “No”. Besides, the half-life at 2 µM in series [1] (pooled plasma) was > 200 min. For the same molecule, in series [2], the half-life at 1 µM is < 50 min and the “Formation of EFdA at 30 min” value is on record as “Yes”.
Turning to `C#C[C@]1(COC(=O)OCC23CC4CC(CC(C4)C2)C3)O[C@@H](n2cnc3c(N)nc(F)nc32)C[C@@H]1OC(=O)OCC` [Compound 24, ((2R,3S,5R)-2-(1-adamantylmethoxycarbonyloxymethyl)-5-(6-amino-2-fluoro-9H-purin-9-yl)-2-ethynyl-tetrahydrofuran-3-yl) ethyl carbonate], in series [1], the “Formation of EFdA at 30 min” value is reported as “Yes”. In addition, in series [1] (plasma), the half-life at 2 µM is 50 to 200 min. In series [2], the half-life at 1 µM was < 50 min and the “Formation of EFdA at 30 min” value is reported as “Yes”.
In the case of `C#C[C@]1(COC(=O)OCCCCC23CC4CC(CC(C4)C2)C3)O[C@@H](n2cnc3c(N)nc(F)nc32)C[C@@H]1OC(=O)OCC` [Compound 25, ((2R,3S,5R)-2-[4-(1-adamantyl)butoxycarbonyloxymethyl]-5-(6-amino-2-fluoro-9H-purin-9-yl)-2-ethynyl-tetrahydrofuran-3-yl) ethyl carbonate], the “Formation of EFdA at 30 min” value in series [1] was “Yes”. In addition, in series [1] (plasma), the half-life at 2 µM is 50 to 200 min. Also, in series [2], the half-life at 1 µM is < 50 min and the “Formation of EFdA at 30 min” value was “Yes”.
For the molecule `C#C[C@]1(COC(=O)OCCCC23CC4CC(CC(C4)C2)C3)O[C@@H](n2cnc3c(N)nc(F)nc32)C[C@@H]1OC(=O)OCC` [Compound 26, ((2R,3S,5R)-2-[3-(1-adamantyl)propoxycarbonyloxymethyl]-5-(6-amino-2-fluoro-9H-purin-9-yl)-2-ethynyl-tetrahydrofuran-3-yl) ethyl carbonate], the “Formation of EFdA at 30 min” value in series [1] is reported as “Yes”. Besides, the half-life at 2 µM in series [1] (plasma) was < 50 min. In series [2], the half-life at 1 µM was < 50 min and the “Formation of EFdA at 30 min” value is recorded as “Yes”.
